Test results: PMC6156138, “Combination of a Latency-Reversing Agent With a Smac Mimetic Minimizes Secondary HIV-1 Infection in vitro” (Frontiers in Microbiology, 2018)
Where two headings read alike, the source gives them in different places.

Assays:
Format in all cases: cell-based
[1] = system: latent HIV-1-infected U1 cells; experiment: HIV reactivation from latent cells: supernatant p24 antigen; conditions: day 2, single drug (Figure 1B)
Procedure: (§1) The reactivation of HIV-1 from latently infected cells was determined by the measurement of supernatant p24 antigen and intracellular HIV-1 RNA levels. ACH-2 cells or U1 cells (5 × 10^5 cells/mL) were placed in 96-well plates, and then the cells were incubated with different concentrations of drugs for 24 h to extract RNA and for 48 h to collect the supernatant. The increase in supernatant p24 antigen levels was measured using […] G1200 (Fujirebio, Tokyo, Japan). The total RNA was extracted using an RNeasy Mini Kit (Qiagen, Hilden, Germany), following the manufacturer’s protocols. The cDNA was synthesized using PrimeScript RT Master Mix (Takara Bio, Shiga, Japan), and quantitative real-time PCR analyses for the intracellular HIV-1 RNA were carried out with PowerUp^TM SYBR Green Master Mix (Applied Biosystems, Foster City, CA, United States). The oligonucleotide primers used were as follows: 5′-[…]-3′ (forward) and 5′-[…]-3′ (reverse) for HIV-RNA detection; 5′-[…]-3′ (forward) and 5′-[…]-3′ (reverse) for β-actin. The HIV-RNA expressions were normalized with that of β-actin, which was indicated as the relative quantity, and the increase in HIV-1 RNA levels in the presence of a drug was compared with that without a drug.
(§2) FIGURE 1 (A,B) The increase in viral production from ACH-2 cells (A) and U1 cells (B) was examined by supernatant p24 antigen levels on day 2. (C,D) Changes in the intracellular HIV-1 mRNA levels due to treatment with these drugs in ACH-2 cells (C) and U1 cells (D) after 24 h of incubation.

[2] = Cytotoxicity assay (Cytotoxicity LDH Assay Kit); conditions: human
Procedure: (§3) To determine the cytotoxicity induced by LRAs and its related compounds, cells (5 × 10^5 cells/mL) were cultured in the presence or absence of LRA. After 24 h, cytotoxicity assays were performed using a Cytotoxicity LDH Assay Kit (Dojindo, Kumamoto, Japan) according to the manufacturer’s instructions. The number of living cells with the drug was measured and compared with those without the drug, and data are shown as percentage (%) of control.

[3] = system: latent HIV-1-infected ACH-2 cells; experiment: HIV reactivation from latent cells: supernatant p24 antigen; conditions: ACH-2 cells; for viral production (supernatant p24 antigen levels): day 2, single drug (Figure 1A)
Procedure: as §1, §2
FIGURE 2 (A) Effect of birinapant when combined with TNF-α. The supernatant p24 levels with birinapant (1∼100 nM) in ACH-2 cell culture on day 2 are shown in white bars, and p24 values with birinapant when combined with TNF-α (10 ng/ml) are shown in black bars. (B) HIV-1 production from ACH-2 cells when reactivated by PEP005 (0.05∼50 nM) for 24 h. (C) Changes in the living cell numbers in the presence of drug(s) on days 1, 3, and 5.

OM10.1 = experiment: Cytotoxicity assay (Cytotoxicity LDH Assay Kit); conditions: OM10.1 cells, 24 h; read-out: CC50 ± SD against OM10.1
Procedure: as §3

U937 = experiment: Cytotoxicity assay (Cytotoxicity LDH Assay Kit); conditions: U937 cells, 24 h; read-out: CC50 ± SD against U937
Procedure: as §3

Jurkat = experiment: Cytotoxicity assay (Cytotoxicity LDH Assay Kit); conditions: Jurkat cells, 24 h; read-out: CC50 ± SD against Jurkat
Procedure: as §3

U1 = experiment: Cytotoxicity assay (Cytotoxicity LDH Assay Kit); conditions: U1 cells, 24 h; read-out: CC50 ± SD against U1
Procedure: as §3

HL-60 = experiment: Cytotoxicity assay (Cytotoxicity LDH Assay Kit); conditions: HL-60 cells, 24 h; read-out: CC50 ± SD against HL-60
Procedure: as §3

A3.01 = experiment: Cytotoxicity assay (Cytotoxicity LDH Assay Kit); conditions: A3.01 cells, 24 h; read-out: CC50 ± SD against A3.01
Procedure: as §3

J1.1 = experiment: Cytotoxicity assay (Cytotoxicity LDH Assay Kit); conditions: J1.1 cells, 24 h; read-out: CC50 ± SD against J1.1
Procedure: as §3

ACH-2 = experiment: Cytotoxicity assay (Cytotoxicity LDH Assay Kit); conditions: ACH-2 cells, 24 h; read-out: CC50 ± SD against ACH-2
Procedure: as §3

HIV-1 NL4-3 = experiment: Antiviral assay, HIV-1 NL4-3 in MT-4 cells; conditions: MT-4 cells, cultured for 12 days, single drug
Procedure: as §3, with “Antiviral assays using wild type HIV-1 (HIV-1 NL4-3) cells and MT-4 cells were conducted as previously described ([Maeda et al., 2014]; [Takamatsu et al., 2015]). To” for “To”
Supplementary file Data_Sheet_1.PDF: FIGURE S1 The combined effect of an RT inhibitor (EFdA/MK-8591) ([Nakata et al., 2007]; [Kawamoto et al., 2008]; [Maeda et al., 2014]) and PKC activator (PEP005) on the replication of HIV-1 NL4-3 in MT-4 cells. MT-4 cells were infected with HIV-1 NL4-3 in the presence or absence of drug(s), cultured for 12 days, and the supernatant p24 levels were measured. Click here for additional data file.

cIAP = experiment: Determination of cIAP expression (western blotting); conditions: ACH-2 cells, 24 h; birinapant 50 nM, PEP005 5 nM, TNF-α 10 ng/ml
Procedure: ACH-2 cells (1 × 10^6 cells/ml) were treated with different concentrations of the drug for 24 h, and the cells were washed twice with PBS. Cells were homogenized by CelLytic M Cell Lysis Reagent (Sigma-Aldrich, St. Louis, MO, United States) containing a protease inhibitor cocktail (Nacalai Tesque, Kyoto, Japan) and were incubated at room temperature (RT) for 15 min. The cells were then centrifuged at 13,000 rpm for 15 min, and the supernatant of the whole cell lysate was collected. The bicinchoninic acid (BCA) protein assay (Thermo Scientific, Rockford, IL, United States) was used to measure the actual protein amount in the treated and untreated cells. The protein extracts were separated through sodium dodecyl sulfate polyacrylamide gel electrophoresis (SDS-PAGE) and then were blotted onto a Trans Blot Turbo polyvinylidene difluoride (PVDF) membrane (Bio-Rad, Hercules, CA, United States). Protein bands were visualized using 3,3′,5,5′-tetramethylbenzidine (TMB) solution (Wako Pure Chemical). The sources of the antibodies were as follows: c-IAP1 (D5G9), c-IAP2 (58C7), and XIAP (3B6) were purchased from Cell Signaling Technology (Danvers, MA, United States); β-actin (C4) was purchased from Santa Cruz Biotechnology.
Supplementary file Data_Sheet_5.PDF: FIGURE S5 Western blotting (WB) analysis for IAP family proteins in ACH-2 cells. Cells were exposed to birinapant (50 nM) in the presence or absence of PEP005 (5 nM), with TNF-α (10 ng/ml) co-treatment for 24 h, and cell lysates were used for WB analysis. Click here for additional data file.

[4] = A3.01 cells, read-out: CC50 ± SD against A3.01
[5] = ACH-2 cells, read-out: CC50 ± SD against ACH-2
[6] = HL-60 cells, read-out: CC50 ± SD against HL-60
[7] = J1.1 cells, read-out: CC50 ± SD against J1.1
[8] = Jurkat cells, read-out: CC50 ± SD against Jurkat
[9] = OM10.1 cells, read-out: CC50 ± SD against OM10.1
[10] = U1 cells, read-out: CC50 ± SD against U1
[11] = U937 cells, read-out: CC50 ± SD against U937

Question: With O=C(CCCCCCC(=O)Nc1ccccc1)NO [SAHA] as the molecule, how does the “viral production (supernatant p24 antigen levels)” value (from here on “viral production”) [1] read?
Answer: increased viral production

Question: And the CC50 at 24 h [2, 4]?
Answer: > 100 µM

Question: What about the CC50 at 24 h [2, 5] of the same molecule?
Answer: 9 ± 1.2 µM

Question: What about the CC50 at 24 h [2, 6] of the same molecule?
Answer: > 100 µM

Question: What about the CC50 at 24 h [2, 7] of the same molecule?
Answer: > 100 µM

Question: What about the CC50 at 24 h [2, 8] of the same molecule?
Answer: 90 ± 2 µM

Question: And the CC50 at 24 h [2, 9]?
Answer: > 100 µM

Question: What about the CC50 at 24 h [2, 10] of the same molecule?
Answer: > 100 µM

Question: What about the CC50 at 24 h [2, 11] of the same molecule?
Answer: > 100 µM

Question: And the “viral production” value [3]?
Answer: increased viral production

Question: For FC(F)(F)Oc1ccc2nc(-c3ccc(OCCOCCOc4ccc(-c5nc6ccc(OC(F)(F)F)cc6[nH]5)nc4)cn3)[nH]c2c1 [AI-10-49], which “viral production” value [1] is on record?
Answer: failed to increase the p24 levels

Question: What about the CC50 (OM10.1) of the same molecule?
Answer: > 100 µM

Question: What about the CC50 (U937) of the same molecule?
Answer: > 100 µM

Question: What about the CC50 (Jurkat) of the same molecule?
Answer: 1.1 ± 0.07 µM

Question: What about the CC50 (U1) of the same molecule?
Answer: > 100 µM

Question: And the CC50 (HL-60)?
Answer: > 100 µM

Question: What about the CC50 (A3.01) of the same molecule?
Answer: > 100 µM

Question: And the CC50 (J1.1)?
Answer: > 100 µM

Question: And the CC50 (ACH-2)?
Answer: 41 ± 10 µM

Question: And the “viral production” value [3]?
Answer: failed to increase the p24 levels

Question: Which “replication of HIV-1 NL4-3 (supernatant p24)” value (HIV-1 NL4-3) does the source give for C#C[C@]1(CO)O[C@@H](n2cnc3c(N)nc(F)nc32)C[C@@H]1O [EFdA/MK-8591, 4′-ethynyl-2-fluoro-2′-deoxyadenosine] here?
Answer: potently inhibited the replication

Question: For Cc1sc2c(c1C)C(c1ccc(Cl)cc1)=N[C@@H](CC(=O)OC(C)(C)C)c1nnc(C)n1-2 [JQ-1], which “viral production” value [1] is on record?
Answer: increased viral production

Question: What about the “viral production” value [3] of the same molecule?
Answer: increased viral production

Question: For CCNC(=O)C[C@@H]1N=C(c2ccc(Cl)cc2)c2cc(OC)ccc2-n2c(C)nnc21 [GSK525762A], which “viral production” value [1] is on record?
Answer: increased viral production

Question: And the “viral production” value [3]?
Answer: increased viral production

Question: Which “viral production” value [1] does the source give for CCCCOc1nc(N)c2c(n1)N(Cc1cccc(CN3CCCC3)c1)CC(=O)N2 [GS-9620] here?
Answer: failed to increase the p24 levels

Question: What about the CC50 at 24 h [2, 4] of the same molecule?
Answer: > 100 µM

Question: What about the CC50 at 24 h [2, 5] of the same molecule?
Answer: > 100 µM

Question: What about the CC50 at 24 h [2, 6] of the same molecule?
Answer: > 100 µM

Question: What about the CC50 at 24 h [2, 7] of the same molecule?
Answer: 35 ± 1.3 µM

Question: And the CC50 at 24 h [2, 8]?
Answer: 23 ± 0.3 µM

Question: What about the CC50 at 24 h [2, 9] of the same molecule?
Answer: > 100 µM

Question: What about the CC50 at 24 h [2, 10] of the same molecule?
Answer: > 100 µM

Question: And the CC50 at 24 h [2, 11]?
Answer: > 100 µM

Question: What about the “viral production” value [3] of the same molecule?
Answer: failed to increase the p24 levels

Question: With Ro5-3335 as the molecule, how does the “viral production” value [1] read?
Answer: failed to increase the p24 levels

Question: And the CC50 (OM10.1)?
Answer: > 100 µM

Question: And the CC50 (U937)?
Answer: > 100 µM

Question: And the CC50 (Jurkat)?
Answer: > 100 µM

Question: What about the CC50 (U1) of the same molecule?
Answer: > 100 µM

Question: And the CC50 (HL-60)?
Answer: > 100 µM

Question: What about the CC50 (A3.01) of the same molecule?
Answer: > 100 µM

Question: And the CC50 (J1.1)?
Answer: > 100 µM

Question: What about the CC50 (ACH-2) of the same molecule?
Answer: > 100 µM

Question: And the “viral production” value [3]?
Answer: failed to increase the p24 levels

Question: With TNF-α as the molecule, how does the “increase of supernatant HIV-1 (p24) levels compared with unstimulated cells” value ([3]; TNF-α 10 ng/ml, day 2 (Figure 2A)) read?
Answer: > 20 fold

Question: And the “supernatant HIV-1 p24 levels” value ([3]; after 24 h, PEP005 5 nM and higher (Figure 2B))?
Answer: reactivated and increased the supernatant HIV-1 p24 levels

Question: What about the “cIAP expression (western blotting)” value (cIAP) of the same molecule?
Answer: upregulation of cIAP-1 (and cIAP-2)
